Experimental data published in article PMC6296175, “Oxidative stress‐induced structural changes in the microtubule‐associated flavoenzyme Irc15p from Saccharomyces cerevisiae” (Protein Science : A Publication of the Protein Society, 2018).

How the values were obtained:
Irc15p [1] = target: T1, Irc15p (Saccharomyces cerevisiae, UniProt Q02733); test: thermal shift assay (SYPRO Orange); type: binding; details: 50 mM HEPES, 50 mM NaCl, 1 mM DTT, pH 7.0, absolute Tm, compare ligand-free control in the 4th table, row 3
T1 construct: gene IRC15; E. coli Rosetta (DE3); ~55 kDa subunit, homodimer ~113-115 kDa, one FAD per protomer
T1 sequence (Q02733 1-499): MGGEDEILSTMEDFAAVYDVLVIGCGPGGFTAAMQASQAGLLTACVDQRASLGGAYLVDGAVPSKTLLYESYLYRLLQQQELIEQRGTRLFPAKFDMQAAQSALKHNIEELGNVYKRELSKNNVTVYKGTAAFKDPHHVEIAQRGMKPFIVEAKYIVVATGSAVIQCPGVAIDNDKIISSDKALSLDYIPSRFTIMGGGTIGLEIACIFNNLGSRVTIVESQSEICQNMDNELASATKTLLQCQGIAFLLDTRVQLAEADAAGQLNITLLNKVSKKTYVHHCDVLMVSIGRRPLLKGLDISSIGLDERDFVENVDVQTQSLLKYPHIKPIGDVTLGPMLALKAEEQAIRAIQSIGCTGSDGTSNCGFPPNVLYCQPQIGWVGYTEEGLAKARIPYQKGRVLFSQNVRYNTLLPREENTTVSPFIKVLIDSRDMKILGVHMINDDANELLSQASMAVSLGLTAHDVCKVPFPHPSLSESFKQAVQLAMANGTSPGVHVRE
Text: thermal shift assay (SYPRO Orange) on Irc15p

Irc15p [2] = target: T1, Irc15p; test: HPLC of flavin released from denatured protein; UV-Vis absorption; type: binding; details: co-purified; lysis buffer supplemented with 10 μM FAD; one FAD per protomer
Irc15p [3] = target: T1, Irc15p; test: stopped-flow reductive half-reaction, flavin absorption at […] nm, hyperbolic fit of rate; type: biochemical; details: anoxic; 50 mM HEPES, 50 mM NaCl, 1 mM DTT, pH 7.0; 4 °C; pre-steady-state; read-out: dissociation constant
[4] = target: the molecule itself; test: SEC; analytical size exclusion chromatography, Superdex 200 10/300 GL, buffer A (50 mM HEPES, 150 mM NaCl, 1 mM DTT, pH 7.0), calibrated with molecular mass standards; elution monitored at 280 and 450 nm

NC(=O)C1=CN([C@@H]2O[C@H](COP(=O)(O)OP(=O)(O)OC[C@H]3O[C@@H](n4cnc5c(N)ncnc54)[C@H](OP(=O)(O)O)[C@@H]3O)[C@@H](O)[C@H]2O)C=CC1 [NADPH]
T m [°C] (Irc15p [1]; 50 mM NADPH, ligand reduces the FAD): 45 °C

NC(=O)c1ccc[n+]([C@@H]2O[C@H](COP(=O)(O)OP(=O)(O)OC[C@H]3O[C@@H](n4cnc5c(N)ncnc54)[C@H](O)[C@@H]3O)[C@@H](O)[C@H]2O)c1 [NAD^+]
T m [°C] (Irc15p [1]; 50 mM NAD+): 64 °C

Cc1cc2nc3c(=O)[nH]c(=O)nc-3n(C[C@H](O)[C@H](O)[C@H](O)COP(=O)(O)OP(=O)(O)OC[C@H]3O[C@@H](n4cnc5c(N)ncnc54)[C@H](O)[C@@H]3O)c2cc1C [FAD]
HPLC of flavin released from denatured protein; UV-Vis absorption (Irc15p [2]): closely corresponding to the retention time of authentic FAD

NC(=O)C1=CN([C@@H]2O[C@H](COP(=O)(O)OP(=O)(O)OC[C@H]3O[C@@H](n4cnc5c(N)ncnc54)[C@H](O)[C@@H]3O)[C@@H](O)[C@H]2O)C=CC1 [NADH]
Kd (Irc15p [3]): 100 ± 5 µM | T m [°C] (Irc15p [1]; 50 mM NADH, ligand reduces the FAD): 47 °C

B1: Irc15p (increased recombination centers 15) (enzyme, S. cerevisiae, UniProt Q02733 1-499, looked up)
chain: MGGEDEILSTMEDFAAVYDVLVIGCGPGGFTAAMQASQAGLLTACVDQRASLGGAYLVDGAVPSKTLLYESYLYRLLQQQELIEQRGTRLFPAKFDMQAAQSALKHNIEELGNVYKRELSKNNVTVYKGTAAFKDPHHVEIAQRGMKPFIVEAKYIVVATGSAVIQCPGVAIDNDKIISSDKALSLDYIPSRFTIMGGGTIGLEIACIFNNLGSRVTIVESQSEICQNMDNELASATKTLLQCQGIAFLLDTRVQLAEADAAGQLNITLLNKVSKKTYVHHCDVLMVSIGRRPLLKGLDISSIGLDERDFVENVDVQTQSLLKYPHIKPIGDVTLGPMLALKAEEQAIRAIQSIGCTGSDGTSNCGFPPNVLYCQPQIGWVGYTEEGLAKARIPYQKGRVLFSQNVRYNTLLPREENTTVSPFIKVLIDSRDMKILGVHMINDDANELLSQASMAVSLGLTAHDVCKVPFPHPSLSESFKQAVQLAMANGTSPGVHVRE
notes: The forward primer carries the start ATG; Homodimer with one FAD per protomer; this was read from the printed primers; source: E. coli Rosetta (DE3), pET21d(+)IRC15, purified (Ni-NTA HisTrap HP; for SAXS also size exclusion chromatography)
stoichiometry N [4]: 2
